“Also recorded” adds a separate entry of the source.
What was measured:
[1] = system: ASKs (A. thaliana GSK-3/Shaggy-like kinases); assay: In vitro kinase assay, GST-ASK fusion proteins with MBP and γ-[32P]-ATP; assay type: biochemical, Arabidopsis thaliana; conditions: compounds at 10 μM, result in words
Experimental: GST-ASK fusion proteins were incubated with MBP as substrate and γ-[32P]-ATP as co-substrate in the absence (−) or presence of different derivatives (the numbers correspond to Table 1). […] The compounds were used at a concentration of 10 μM. The proteins were separated by SDS-PAGE and the incorporated radioactive phosphate detected with a storage phosphor imager screen.
(§1) ASKs were expressed as GST-fusion proteins in E. coli BL21. In vitro kinase assays were performed by incubating 50 ng GST-fusion protein, 10 μg myelin basic protein (MBP; Sigma, St Louis, Mo.) as substrate and 0.15 MBq γ-[32P]-ATP as co-substrate at 25° C. for 30 min. The reaction buffer consisted of 20 mM HEPES pH7.4, 15 mM MgCl2, 5 mM EGTA and 1 mM DTT. For initial experiments cold ATP was included at concentrations up to 3 μM. The reaction products were separated by SDS-PAGE and the amount of radioactivity incorporated into MBP quantified using an Amersham storage phosphor imager screen and a Biorad Molecular Imager FX. In vivo kinase activity was detected by phosphorylation band-shift assays using BZR1-CFP as substrate.
Representatives of all groups were expressed as recombinant GST fusion proteins in E. coli.

[2] = target: T1, BIN2 (Arabidopsis thaliana, UniProt Q39011); assay: In vitro kinase assay, GST-BIN2; assay type: biochemical; conditions: compounds at 10 μM; result in words
T1 construct: made in house; host or cells: E. coli BL21
T1 sequence (Q39011 1-380): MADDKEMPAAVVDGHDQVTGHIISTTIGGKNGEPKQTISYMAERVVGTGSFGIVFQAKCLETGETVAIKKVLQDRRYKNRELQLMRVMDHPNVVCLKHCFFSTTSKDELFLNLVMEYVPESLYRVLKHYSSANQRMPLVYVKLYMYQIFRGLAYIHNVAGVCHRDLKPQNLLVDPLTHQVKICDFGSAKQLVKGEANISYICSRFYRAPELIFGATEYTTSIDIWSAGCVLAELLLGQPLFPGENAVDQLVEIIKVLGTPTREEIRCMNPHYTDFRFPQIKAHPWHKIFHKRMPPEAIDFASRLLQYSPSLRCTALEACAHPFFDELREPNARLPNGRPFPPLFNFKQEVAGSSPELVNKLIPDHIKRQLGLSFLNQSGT
Experimental: GST-BIN2 was incubated with MBP and γ-[32P]-ATP in the absence or presence of compounds 3, 14 and 15 at a concentration of 10 μM. The proteins were separated by SDS-PAGE and phosphorylation of MBP was quantified with a phospho imager screen. The residual activity is expressed in % of the control. The means and standard deviations were calculated from 4 independent assays.
as §1
The second kinase of this class, ASKβ, and the group IV kinase ASKδ are not inhibited. Representatives of all groups were expressed as recombinant GST fusion proteins in E. coli. […]

[3] = target: T2, ASKζ (Arabidopsis thaliana, UniProt Q39010); assay: In vivo kinase assay, BZR1-CFP phosphorylation band-shift in protoplasts; assay type: cell-based, A. thaliana; conditions: protoplasts co-transformed with BZR1-CFP and Myc-tagged ASK; increasing concentrations
T2 construct: expressed in transfected cells; host or cells: A. thaliana protoplasts
T2 sequence (Q39010 1-412): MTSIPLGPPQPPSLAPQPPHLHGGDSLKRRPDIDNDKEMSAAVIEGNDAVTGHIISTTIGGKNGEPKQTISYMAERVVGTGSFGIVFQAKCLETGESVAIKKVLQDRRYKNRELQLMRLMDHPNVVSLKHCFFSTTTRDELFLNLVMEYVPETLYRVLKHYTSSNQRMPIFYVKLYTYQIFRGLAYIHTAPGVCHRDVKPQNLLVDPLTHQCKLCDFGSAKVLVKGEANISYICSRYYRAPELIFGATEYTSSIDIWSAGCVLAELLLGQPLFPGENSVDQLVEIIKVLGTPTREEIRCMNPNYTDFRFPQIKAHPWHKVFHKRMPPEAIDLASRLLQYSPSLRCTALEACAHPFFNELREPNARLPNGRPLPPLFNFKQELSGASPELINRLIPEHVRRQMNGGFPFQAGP
Excerpt: A. thaliana protoplasts were co-transformed with expression constructs of BZR1-CFP and Myc-tagged ASKζ and treated with increasing concentrations of compounds 10 and 15. […] and ASKζ-Myc were detected by western blot analysis using polyclonal anti-GFP and monoclonal anti-Myc antibodies, respectively. A Coomassie R250 stain is shown as a loading control. Depending on the ASKζ kinase activity BZR1-CFP can be observed in a phosphorylated or unphosphorylated form (indicated by arrows). The ratio of the two ASKζ-Myc bands, indicating posttranslational modification of this protein, were not affected by inhibitor application.
ASKs were expressed as GST-fusion proteins in E. coli BL21. […] The reaction products were separated by SDS-PAGE and the amount of radioactivity incorporated into MBP quantified using an Amersham storage phosphor imager screen and a Biorad Molecular Imager FX. In vivo kinase activity was detected by phosphorylation band-shift assays using BZR1-CFP as substrate.
Because of this unexpected result, the effect of the inhibitions on the in vivo ASK activity was analysed by a direct method. […] Transformed protoplasts were incubated with different concentrations of compounds 10 and 15 and BZR1-CFP and […] and subsequently analysed by western blotting.

[4] = Determination of pKa values; conditions: for pKa: 50% (v/v) methanol
Experimental: Fifty to 100 mg compound were weighed and dissolved in 50 ml 50% (v/v) methanol. A titration curve with 50 mM NaOH as standard solution was recorded with a Greisinger electonics GPHR 1400A pH meter. The equivalence point was determined by the difference quotient method (ΔpH/ΔVNaOH) and the pKa read from the titration curve at 50% neutralisation.

[5] = target: T3, ASKθ (Arabidopsis thaliana, UniProt Q96287); conditions: prior knowledge; cited from earlier work
T3 construct: made in house; host or cells: E. coli BL21
T3 sequence (Q96287 1-472): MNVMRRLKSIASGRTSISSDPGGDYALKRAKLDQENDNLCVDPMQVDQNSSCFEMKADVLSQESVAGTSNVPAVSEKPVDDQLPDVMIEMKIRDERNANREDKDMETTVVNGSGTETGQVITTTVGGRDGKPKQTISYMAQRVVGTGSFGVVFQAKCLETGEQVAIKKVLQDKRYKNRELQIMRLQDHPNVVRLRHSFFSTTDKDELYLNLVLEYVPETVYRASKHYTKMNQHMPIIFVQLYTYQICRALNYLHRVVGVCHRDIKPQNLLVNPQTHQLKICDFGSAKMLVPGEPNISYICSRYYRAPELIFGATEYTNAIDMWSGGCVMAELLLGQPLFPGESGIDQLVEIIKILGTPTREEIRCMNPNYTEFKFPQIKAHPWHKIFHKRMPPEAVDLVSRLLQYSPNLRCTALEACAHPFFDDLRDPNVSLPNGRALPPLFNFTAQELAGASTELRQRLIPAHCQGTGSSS

[6] = target: T4, ASKβ (Arabidopsis thaliana, UniProt O23145); conditions: prior knowledge; cited from earlier work
T4 construct: made in house; host or cells: E. coli BL21
T4 sequence (O23145 1-431): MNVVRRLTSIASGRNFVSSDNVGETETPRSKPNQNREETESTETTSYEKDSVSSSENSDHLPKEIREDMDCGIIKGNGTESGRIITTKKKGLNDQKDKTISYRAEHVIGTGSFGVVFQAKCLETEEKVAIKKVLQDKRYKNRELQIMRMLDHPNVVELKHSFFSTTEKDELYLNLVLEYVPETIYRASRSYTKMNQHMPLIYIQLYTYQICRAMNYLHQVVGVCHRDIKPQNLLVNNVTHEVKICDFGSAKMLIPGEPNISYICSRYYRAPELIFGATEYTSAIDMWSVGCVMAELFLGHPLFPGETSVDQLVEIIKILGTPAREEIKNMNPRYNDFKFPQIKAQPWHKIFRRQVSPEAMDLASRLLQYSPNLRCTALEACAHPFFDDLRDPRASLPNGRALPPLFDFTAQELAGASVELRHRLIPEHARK

[7] = target: T5, ASKδ (Arabidopsis thaliana, UniProt Q9FVS6); conditions: prior knowledge; listed as 4-[(5-bromo-2-pyridinyl)amino]-4-oxobutanoic acid; cited from earlier work
T5 construct: made in house; host or cells: E. coli BL21
T5 sequence (Q9FVS6 1-420): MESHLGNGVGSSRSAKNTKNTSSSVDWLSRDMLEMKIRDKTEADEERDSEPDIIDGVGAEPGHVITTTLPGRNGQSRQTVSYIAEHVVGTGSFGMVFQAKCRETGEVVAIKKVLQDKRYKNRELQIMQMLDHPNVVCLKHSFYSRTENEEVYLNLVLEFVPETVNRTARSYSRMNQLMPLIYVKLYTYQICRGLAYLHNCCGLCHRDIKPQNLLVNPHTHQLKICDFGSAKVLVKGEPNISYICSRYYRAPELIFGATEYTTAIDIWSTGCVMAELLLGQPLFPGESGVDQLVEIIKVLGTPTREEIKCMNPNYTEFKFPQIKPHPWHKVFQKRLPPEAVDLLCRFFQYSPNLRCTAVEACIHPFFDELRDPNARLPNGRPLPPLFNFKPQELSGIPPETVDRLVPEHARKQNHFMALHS

[8] = system: cpd mutant seedlings; conditions: background statement; cited from earlier work
[9] = system: bri1-1 mutant seedlings; conditions: background statement; cited from earlier work
[10] = system: group I and group II ASKs; conditions: group I: ASKα, ASKγ, ASKε; group II: BIN2, ASKζ, ASKι; prior knowledge; listed as 4-[(5-bromo-2-pyridinyl)amino]-4-oxobutanoic acid; cited from earlier work

| SMILES | Inhibition of ASKs in vitro (MBP phosphorylation) [1] | Inhibition of ASKs in vitro (MBP phosphorylation) ([1]; listed as iodo derivative) | Inhibition of BIN2 in vitro (residual kinase activity) [2] | Inhibition of in vivo ASK activity (BZR1-CFP phosphorylation shift) [3] | pKa [4] | Portion undissociated ([4]; intracellular pH of 7.4) | Portion undissociated / lipophilic, capable of diffusion through the membrane ([4]; pH5.8, the pH of the medium) [%] | Inhibition of ASKθ (group III) [5] | Inhibition of ASKβ (group III) [6] | Inhibition of ASKδ (group IV) [7] | Rescue of cpd mutant [8] | Rescue of bri1-1 mutant [9] | Inhibition of group I and group II ASKs [10] |
| --- | --- | --- | --- | --- | --- | --- | --- | --- | --- | --- | --- | --- | --- |
| O=C(O)CCC(=O)Nc1ccc(I)cn1 [Compound 15, 4-[(5-iodopyrid-2-yl)amino]-4-oxobutanoic acid] | highest activity; also recorded: most potent compound in vitro | highly active | highest potency | potent inhibitors in vivo; also recorded: highly active; also recorded: high inhibitory activity in vivo | 5.8 | less than 3% | 50 |  |  |  |  |  |  |
| O=C(O)CCC(=O)Nc1ccc(Br)cn1 [Compound 14, 4-[(5-bromopyrid-2-yl)amino]-4-oxobutanoic acid] | highly active |  |  |  | 5.6 |  |  | moderately inhibited | not inhibited | not inhibited; also recorded: insensitive | rescues both mutants | rescues both mutants | potent inhibitor; also recorded: most sensitive |
| CC(C)[C@@H](C)[C@@H](O)[C@H](O)[C@@H](C)[C@H]1CC[C@H]2[C@@H]3COC(=O)[C@H]4C[C@H](O)[C@H](O)C[C@]4(C)[C@H]3CC[C@]12C [epi-brassinolide] |  |  |  |  |  |  |  |  |  |  | rescues cpd | not bril-1 |  |

From US8642510B2, “Inhibitors for brassinosteroid signalling” (GMI-Gregor Mendel-Institut fuer Molekulare Pflanzenbiologie …, priority 2008, dated 2014)
